Patent publication US7129398B2, “Reversible male sterility in transgenic plants by expression of a GA-insensitive mutant protein, gai” (Monsanto Technology LLC, priority 2001, dated 2006)

System: male sterile transgenic plants (pMON42169, TA29-gai)
Experiment: Fertility restoration of gai male sterile transgenic tobacco plants by chemical spray
Assay type: in vivo, Nicotiana tabacum
Conditions: for restoration of male fertility: aqueous 0.25% Sylgard 309; for Seed weight: mean of 5 seed sets ± SE
Description: Kanamycin resistant F1 seedlings were transferred to soil and grown to flowering stage. After male sterility in the first few flowers was observed, plants from each lines were divided into four groups to receive different treatments every other day. One group received 15 mg of kinetin (a synthetic cytokinin) (Sigma) per plant, while the other two groups received either 10 mg of GA3 (Sigma) or 10 mg of TDZ (Sigma) per plant. The chemicals are in an aqueous solution containing 0.25% of Sylgard 309 surfactant (Willbur-Ellis, Fresno, Calif.) and the last group received surfactant only. The applications continued for two weeks. In another experiment, F1 plants from several male sterile transgenic lines were selected based on resistance to kanamycin and grown to flowering to verify the inheritance of the male sterile phenotype. Each plant was then sprayed with a solution containing 15 mg of kinetin every other day for two weeks. The plants continued to develop male sterile flowers until 10 days after the first application of kinetin. At 10 days post-application, the flowers that developed were male fertile. Flowers from treated plants began visibly shedding pollen whereas untreated flowers remained sterile. Under greenhouse growth conditions, the transition from stage −3 to stage 12 for a tobacco floral bud occurred in approximately 10 days. It appeared that for effective fertility restoration, kinetin needed to be applied prior to stage −2, which coincided with the onset of the TA29 promoter.

[1] = F1 male sterile transgenic tobacco, 10 mg per plant every other day for two weeks

Row | Compound | restoration of anther development [1] | restoration of male fertility [1] | persistence of production of male fertile flowers post-application (15 mg per plant every other day for two weeks) [days] | time after first application until developing flowers were male fertile (15 mg per plant every other day for two weeks, F1 male sterile transgenic tobacco lines) [days] | restoration of male fertility (F1 male sterile transgenic tobacco, 15 mg per plant every other day for two weeks) | Seed weight (event 782 (S): selfing after fertility restoration) [mg] | Seed weight (event 790 (S): selfing after fertility restoration) [mg] | morphology and seed set of restored flowers (kinetin-restored flowers of male sterile transgenic tobacco) | difference in seed weight, selfed seed of restored flowers vs crossed seed of sterile flowers and selfed seed of wild-type flowers (lines 788 and 790)
1 | C=C1C[C@]23C[C@@]1(O)CC[C@H]2[C@@]12C=C[C@H](O)[C@@](C)(C(=O)O1)[C@H]2[C@@H]3C(=O)O [GA3] | did not restore the anther development | remained male sterile | – | – | – | – | – | – | –
2 | c1coc(CNc2ncnc3[nH]cnc23)c1 [kinetin] | – | – | 11 | 10 | shed pollen and set seeds | 113.0 ± 18.9 | 110.2 ± 13.5 | morphologically normal but also had typical seed sets | no significant difference
3 | O=C(Nc1ccccc1)Nc1cnns1 [TDZ] | – | did not restore the fertility | – | – | – | – | – | – | –
